The record followed here is patent publication US9073876B2, “Flap modulators” (JANSSEN PHARMACEUTICA NV, priority 2013, dated 2015).

Structures are written as SMILES. Where a name gives a salt, the structure may show the parent alone. Bounds are passed on as bounds.

For this assay, the target named is human FLAP (Homo sapiens (Human), UniProt P20292). Kind of assay: FLAP binding assay (HTRF). To be noted: human FLAP-containing membranes, HTRF format; average of two assay plates, duplicates; read-out: FLAP Binding wild type HTRF Ki. As to the method: The ability of the compounds of the present invention to treat a FLAP-mediated disease and/or disorder, or associated symptoms or complications thereof, was determined using the following procedures. Binding assay data represent the average value obtained from two different assay plates, with samples run in duplicate on each plate. Human whole blood assay data represent a single replicate on an assay plate using whole blood from at least one healthy donor.
human FLAP, sequence (P20292 whole entry): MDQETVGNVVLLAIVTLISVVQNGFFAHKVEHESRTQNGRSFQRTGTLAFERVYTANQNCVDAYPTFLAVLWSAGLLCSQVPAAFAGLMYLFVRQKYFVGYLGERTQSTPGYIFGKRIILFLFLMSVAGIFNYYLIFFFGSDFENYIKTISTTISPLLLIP
Data are expressed as a HTRF ratio.
Turning to `Nc1cnc(-c2ccc(C3CCC3)c(Oc3cc(C(F)(F)F)ncn3)c2F)cn1` [Example 125, 5-(4-Cyclobutyl-2-fluoro-3-{[6-(trifluoromethyl)pyrimidin-4-yl]oxy}phenyl)pyrazin-2-amine], the Ki came out at 250 nM. As for `Nc1cnc(-c2ccc(C3CCC3)c(OCc3ccccc3F)c2F)cn1` [Example 30, 5-{4-Cyclobutyl-2-fluoro-3-[(2-fluorobenzyl)oxy]phenyl}pyrazin-2-amine], the inhibition constant Ki was 354 nM. Under `Nc1cnc(-c2ccc(C3CCC3)c(OCC(O)Cn3cccnc3=O)c2F)cn1` (racemic) [Example 310, racemic 1-{3-[3-(5-Aminopyrazin-2-yl)-6-cyclobutyl-2-fluorophenoxy]-2-hydroxypropyl}pyrimidin-2(1H)-one] stands over 10000 nM. Under `Nc1cnc(-c2ccc(C3CCC3)c(OCc3cccc(F)c3F)c2F)cn1` [Example 32, 5-{4-Cyclobutyl-3-[(2,3-difluorobenzyl)oxy]-2-fluorophenyl}pyrazin-2-amine] stands 354 nM; under `CC(C)CCc1ccc(-c2cnc(N)cn2)c(F)c1Oc1nccc(N)n1` [Example 327, 2-(3-(5-Aminopyrazin-2-yl)-2-fluoro-6-isopentylphenoxy)pyrimidin-4-amine], 528 nM; under `CS(=O)(=O)c1ccc(Oc2c(C3CCC3)ccc(-c3cnc(N)cn3)c2F)c(C(F)(F)F)c1` [Example 127, 5-(4-cyclobutyl-2-fluoro-3-(4-(methylsulfonyl)-2-(trifluoro-methyl)phenoxy)phenyl)pyrazin-2-amine], 2200 nM. Then `Nc1ccc(-c2ccc(C3CCC3)c(O)c2F)nn1` [Example 223, 3-(6-aminopyridazin-3-yl)-6-cyclobutyl-2-fluorophenol], with over 10000 nM; and `Nc1cnc(-c2ccc(C3CCC3)c(OCc3ccccc3S(F)(F)(F)(F)F)c2F)cn1` [Example 81, 5-(4-Cyclobutyl-2-fluoro-3-{[2-(pentafluoro-lambda~6~- sulfanyl)benzyl]oxy}phenyl)pyrazin-2-amine], with 394 nM; and `Cc1ccc(-c2cnc(N)cn2)c(F)c1Oc1ncccn1` [Example 314, 5-[2-Fluoro-4-methyl-3-(pyrimidin-2-yloxy)phenyl]pyrazin-2-amine], with over 10000 nM. With `Nc1cnc(-c2ccc(C3CCC3)c(OCc3ccc(OC(F)(F)F)cc3)c2F)cn1` [Example 10, 5-(4-Cyclobutyl-2-fluoro-3-{[4-(trifluoromethoxy)benzyl]oxy}phenyl)-pyrazin-2-amine], the Ki worked out at 866 nM. Regarding `Nc1cnc(-c2ccc(C3CCC3)c(OCC(O)CN3CCCCC3)c2F)cn1` (racemic) [Example 303, racemic 5 1-[3-(5-Aminopyrazin-2-yl)-6-cyclobutyl-2-fluorophenoxy]-3-piperidin-1-ylpropan-2-ol], the Ki is over 10000 nM. Take `Nc1cnc(-c2ccc(C3CCC3)c(Oc3cnc(C(F)(F)F)cn3)c2F)cn1` [Example 105, 5-(4-Cyclobutyl-2-fluoro-3-{[5-(trifluoromethyl)pyrazin-2-yl]oxy}phenyl)pyrazin-2-amine]: the Ki is 250 nM. Take `Nc1ccnc(Oc2c(C3CCC3)ccc(-c3cc4cc[nH]c4nn3)c2F)n1` [Example 270, 2-[6-Cyclobutyl-2-fluoro-3-(7H-pyrrolo[2,3-c]pyridazin-3-yl)phenoxy]pyrimidin-4-amine]: the inhibition constant Ki was 800 nM. Under `Nc1cnc(-c2ccc(C3CCC3)c(OCC(O)CN3CCNCC3)c2F)cn1` (racemic) [Example 309, racemic 1-[3-(5-Aminopyrazin-2-yl)-6-cyclobutyl-2-fluorophenoxy]-3-piperazin-1-ylpropan-2-ol] stands over 10000 nM; under `Nc1cnc(-c2ccc(C3CCC3)c(OCC(O)CN3CCCC3)c2F)cn1` (racemic) [Example 306, racemic 1-[3-(5-Aminopyrazin-2-yl)-6-cyclobutyl-2-fluorophenoxy]-3-pyrrolidin-1-ylpropan-2-ol], over 10000 nM. Under `COc1c(Br)ccc(-c2cnc(N)cn2)c1F` [Example 210, 5-(4-bromo-2-fluoro-3-methoxyphenyl)-pyrazin-2-amine] stands 2500 nM; under `Nc1cnc(-c2ccc(C3CCC3)c(OCc3ccc(F)cc3)c2F)cn1` [Example 28, 5-{4-Cyclobutyl-2-fluoro-3-[(4-fluorobenzyl)oxy]phenyl}pyrazin-2-amine], 304 nM; under `COc1c(C2CCC2)ccc(-c2ccc(N)nn2)c1F` [Example 219, 6-(4-cyclobutyl-2-fluoro-3-methoxyphenyl)pyridazin-3-amine], over 10000 nM. Then `Nc1cnc(-c2ccc(C3CCC3)c(OCc3cccc(C(F)(F)F)c3Cl)c2F)cn1` [Example 42, 5-(3-{[2-Chloro-3-(trifluoromethyl)benzyl]oxy}-4-cyclobutyl-2-fluorophenyl)pyrazin-2-amine], with 2000 nM; and `Nc1cnc(-c2ccc(C3CCC3)c(OCc3ccc(Cl)cc3Cl)c2F)cn1` [Example 40, 5-{4-Cyclobutyl-3-[(2,4-dichlorobenzyl)oxy]-2-fluorophenyl}pyrazin-2-amine], with 612 nM.

For `N#Cc1nc(N)cnc1-c1ccc(C2CCC2)c(O)c1F` [Example 173, 6-amino-3-(4-cyclobutyl-2-fluoro-3-hydroxyphenyl)pyrazine-2-carbonitrile], the Ki amounted to 682 nM. Under `Nc1cnc(-c2ccc(C3CCC3)c(OCC(O)CO)c2F)cn1` (racemic) [Example 254, 3-(3-(5-Aminopyrazin-2-yl)-6-cyclobutyl-2-fluorophenoxy)propane-1,2-diol] stands 992 nM; under `Nc1cnc(-c2ccc(C3CCC3)c(OCC3CNC3)c2F)cn1` [Example 301, 5-[3-(Azetidin-3-ylmethoxy)-4-cyclobutyl-2-fluorophenyl]pyrazin-2-amine], over 10000 nM. As for `CC(C)NCC(O)COc1c(C2CCC2)ccc(-c2cnc(N)cn2)c1F` (racemic) [Example 305, racemic 1-[3-(5-Aminopyrazin-2-yl)-6-cyclobutyl-2-fluorophenoxy]-3-[(1-methylethyl)amino]propan-2-ol], the inhibitory constant (Ki) was over 10000 nM. For `N#Cc1nc(N)ncc1Oc1c(C2CCC2)ccc(-c2cnc(N)cn2)c1F` [Example 273, 2-Amino-5-[3-(5-aminopyrazin-2-yl)-6-cyclobutyl-2-fluorophenoxy]pyrimidine-4-carbonitrile], the inhibitory constant (Ki) is over 10000 nM. As for `CS(=O)(=O)c1ccccc1Oc1c(C2CCC2)ccc(-c2cnc(N)cn2)c1F` [Example 117, 5-{4-Cyclobutyl-2-fluoro-3-[2-(methylsulfonyl)phenoxy]phenyl}pyrazin-2-amine], the inhibition constant (Ki) is 2500 nM. Under `Nc1cnc(-c2ccc(C3CCC3)c(OCC(O)CN3CCNC3=O)c2F)cn1` (racemic) [Example 312, racemic 1-{3-[3-(5-Aminopyrazin-2-yl)-6-cyclobutyl-2-fluorophenoxy]-2-hydroxypropyl}imidazolidin-2-one] stands 974 nM; under `Cn1cnc(COc2c(C3CCC3)ccc(-c3cnc(N)cn3)c2F)c1` [Example 284, 5-{4-Cyclobutyl-2-fluoro-3-[(1-methyl-1H-imidazol-4-yl)methoxy]phenyl}pyrazin-2-amine trifluoroacetic acid salt], over 10000 nM. Regarding `Nc1cnc(-c2ccc(CC3CCCCC3)c(Oc3nccc(N)n3)c2F)cn1` [Example 326, 2-(3-(5-Aminopyrazin-2-yl)-6-(cyclohexylmethyl)-2-fluorophenoxy)pyrimidin-4-amine], the inhibition constant (Ki) was determined as 358 nM. As to `Nc1cnc(-c2ccc(C3CCC3)c(OCC3CCCN3)c2F)cn1` (racemic) [Example 302, racemic 5-[4-Cyclobutyl-2-fluoro-3-(pyrrolidin-2-ylmethoxy)phenyl]pyrazin-2-amine], the inhibitory constant (Ki) was over 10000 nM. As for `Nc1cnc(-c2ccc(C3CCC3)c(OCc3cccc(OC(F)(F)F)c3)c2F)cn1` [Example 9, 5-(4-Cyclobutyl-2-fluoro-3-{[3-(trifluoromethoxy)benzyl]oxy}phenyl)-pyrazin-2-amine], the Ki was determined as 808 nM. Under `CCc1ccc(-c2cnc(N)cn2)c(F)c1Oc1ncccn1` [Example 316, 5-[4-Ethyl-2-fluoro-3-(pyrimidin-2-yloxy)phenyl]pyrazin-2-amine] stands 289 nM; under `Nc1ccc(-c2ccc(C3CCC3)c(Oc3cc(O)ncn3)c2F)nn1` [Example 233, 6-(3-(6-aminopyridazin-3-yl)-6-cyclobutyl-2-fluorophenoxy)pyrimidin-4-ol], 1680 nM. `Nc1cnc(-c2ccc(C3CCC3)c(Oc3ccc(C(F)(F)F)nc3)c2F)cn1` [Example 128, 5-(4-Cyclobutyl-2-fluoro-3-{[6-(trifluoromethyl)pyridin-3-yl]oxy}phenyl)pyrazin-2-amine]: the Ki came out at 297 nM.

Consider `Nc1cnc(-c2ccc(C3CCC3)c(OCC(=O)O)c2F)cn1` [Example 50, [3-(5-Aminopyrazin-2-yl)-6-cyclobutyl-2-fluorophenoxy]acetic acid], for which the Ki is 1500 nM. Under `Nc1cnc(-c2ccc(C3CCC3)c(OCC3CCCNC3)c2F)cn1` (racemic) [Example 299, racemic 5-[4-Cyclobutyl-2-fluoro-3-(piperidin-3-ylmethoxy)phenyl]pyrazin-2-amine] stands over 10000 nM; under `Nc1cnc(-c2ccc(C3CCC3)c(OCc3nc4ccccc4s3)c2F)cn1` [Example 283, 5-[3-(1,3-Benzothiazol-2-ylmethoxy)-4-cyclobutyl-2-fluorophenyl]pyrazin-2-amine trifluoroacetic acid salt], 97.6 nM; under `Nc1cnc(-c2ccc(C3CCC3)c(OCc3ccc(F)cc3C(F)(F)F)c2F)cn1` [Example 44, 5-(4-Cyclobutyl-2-fluoro-3-{[4-fluoro-2-(trifluoro-methyl)benzyl]oxy}phenyl)pyrazin-2-amine], 1500 nM.

As for `Nc1cnc(-c2ccc(C3CCC3)c(OCC3CCNCC3)c2F)cn1` [Example 298, 5-[4-Cyclobutyl-2-fluoro-3-(piperidin-4-ylmethoxy)phenyl]pyrazin-2-amine hydrogen chloride salt], the inhibition constant Ki is over 10000 nM.
